Results: patent US20060069132A1, “Azolecarboxamide herbicides” (priority 2004, published 2006)

Tests used:
barnyardgrass [1] = assay: Test B flooded paddy test; format: in vivo, Echinochloa crus-galli; settings: 1000 g ai/ha, scale 0 to 100 (0 no effect, 100 complete control)
In short: (§1)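 After treating 2-leaf paddy plants or 2–18 cm postemergence plants (1 to 4 leaves) with formulated chemical, researchers kept them in a greenhouse for 13–15 days. Effects were judged visually versus controls: 0 indicates none, 100 total control.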

barnyardgrass [2] = assay: Test B pre-/postemergence herbicide test; format: in vivo, Echinochloa crus-galli
In short: (§2)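 Flooded paddy rice and barnyardgrass were treated at the 2-leaf stage; upland plantings received compound either on sown seed or on 1- to 4-leaf seedlings. All were kept 13–15 days in a greenhouse and scored visually, 0–100, relative to untreated plants.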

large crabgrass = assay: Test B pre-/postemergence herbicide test; format: in vivo, Digitaria sanguinalis
In short: (§3)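 Response was scored visually 13 to 15 days after treatment against untreated greenhouse controls, 0 meaning no effect and 100 complete control. Formulations (solvent mixture plus surfactant) went onto soil after planting, onto foliage of 1- to 4-leaf plants, and onto 2-leaf plants in a flooded paddy set including rice and barnyardgrass.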

ducksalad = assay: Test B flooded paddy test; format: in vivo, Heteranthera limosa; settings: 1000 g ai/ha, scale 0 to 100 (0 no effect, 100 complete control)
In short: as §1

blackgrass = assay: Test B postemergence herbicide test; format: in vivo, Alopecurus myosuroides
In short: as §1

rice = assay: Test B flooded paddy test; format: in vivo, Oryza sativa; settings: 1000 g ai/ha, scale 0 to 100 (0 no effect, 100 complete control)
In short: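 Postemergence plants were sprayed with formulated test chemicals at 2 to 18 cm height (1- to 4-leaf stage); paddy species were grown to the 2-leaf stage. After 13 to 15 days in a greenhouse, injury was rated visually against untreated controls on a 0–100 scale (0 = no effect, 100 = complete control).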

morningglory = assay: Test B pre-/postemergence herbicide test; format: in vivo, Ipomoea coccinea
In short: as §2

wheat = assay: Test B postemergence herbicide test; format: in vivo, Triticum aestivum; design: key to Wheat plant response rating: 0 = no effect, 100 = complete control
In short: (§4)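 Visual ratings, 0 (no effect) to 100 (complete control), made versus controls after 13–15 d greenhouse. Paddy plants treated at 2-leaf stage; postemergence plants at 1- to 4-leaf stage, 2–18 cm tall.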

velvetleaf = assay: Test B pre-/postemergence herbicide test; format: in vivo, Abutilon theophrasti
In short: as §3

pigweed = assay: Test B pre-/postemergence herbicide test; format: in vivo, Amaranthus retroflexus
In short: as §3

wild oat = assay: Test B postemergence herbicide test; format: in vivo, Avena fatua
In short: as §4

corn = assay: Test B pre-/postemergence herbicide test; format: in vivo, Zea mays
In short: as §3

Surinam grass = assay: Test B pre-/postemergence herbicide test; format: in vivo, Urochloa decumbens
In short: as §3

giant foxtail = assay: Test B pre-/postemergence herbicide test; format: in vivo, Setaria faberi
In short: as §3

[3] = system: small flower umbrella sedge; assay: Test B flooded paddy test; format: in vivo, Cyperus difformis; settings: 1000 g ai/ha, scale 0 to 100 (0 no effect, 100 complete control)
In short: as §1

[4] = 125 g ai/ha, 0 is no effect, 100 is complete control, preemergence
[5] = 125 g ai/ha, visual rating, scale 0 (no effect) to 100 (complete control), postemergence
[6] = 500 g ai/ha, visual rating, 0 = no effect, 100 = complete control, preemergence
[7] = postemergence, 500 g ai/ha, scale 0 to 100, 0 is no effect, 100 is complete control
[8] = Postemergence, 500 g ai/ha, visual rating after 13 to 15 days, scale 0 (no effect) to 100 (complete control)
[9] = Preemergence, 500 g ai/ha, scale 0 to 100
[10] = postemergence, 125 g ai/ha, visual rating, scale 0 (no effect) to 100 (complete control)
[11] = preemergence, 125 g ai/ha, 0 to 100 scale, 0 is no effect, 100 is complete control
[12] = 125 g ai/ha, 0 = no effect, 100 = complete control, preemergence
[13] = Postemergence, 250 g ai/ha, scale 0 (no effect) to 100 (complete control)
[14] = postemergence, 62 g ai/ha, scale 0 to 100

CCn1nc(C(C)(C)C)cc1C(=O)Nc1cccc(OC(F)(F)C(F)F)c1 [Compound 333]
Barnyardgrass plant response rating (barnyardgrass [1]): 50
Plant response rating (0 to 100 scale), Barnyardgrass (barnyardgrass [2]; [4]): 0
Barnyardgrass plant response rating (barnyardgrass [2]; [5]): 10
Plant response rating, Barnyardgrass (barnyardgrass [2]; [6]): 20
Barnyardgrass plant response rating (barnyardgrass [2]; [7]): 40
Plant response rating (0 to 100 scale), Crabgrass, Large (large crabgrass; [4]): 40
Crabgrass, Large plant response rating (large crabgrass; [5]): 40
Plant response rating, Crabgrass, Large (large crabgrass; [6]): 70
Crabgrass, Large plant response rating (large crabgrass; [7]): 100
Ducksalad plant response rating (ducksalad): 80
Blackgrass plant response rating (blackgrass; [5]): 30
Blackgrass plant response rating (blackgrass; [7]): 70
Rice plant response rating (rice): 20
Plant response rating (0 to 100 scale), Morningglory (morningglory; [4]): 0
Morningglory plant response rating (morningglory; [5]): 30
Plant response rating, Morningglory (morningglory; [6]): 10
Morningglory plant response rating (morningglory; [7]): 60
Wheat plant response rating (wheat; [5]): 20
Wheat plant response rating (wheat; [7]): 30
Plant response rating (0 to 100 scale), Velvetleaf (velvetleaf; [4]): 10
Velvetleaf plant response rating (velvetleaf; [5]): 50
Velvetleaf plant response rating (velvetleaf; [7]): 60
Plant response rating (0 to 100 scale), Pigweed (pigweed; [4]): 90
Pigweed plant response rating (pigweed; [5]): 90
Plant response rating, Pigweed (pigweed; [6]): 100
Pigweed plant response rating (pigweed; [7]): 100
Oat, Wild plant response rating (wild oat; [5]): 40
Oat, Wild plant response rating (wild oat; [7]): 60
Plant response rating (0 to 100 scale), Corn (corn; [4]): 0
Corn plant response rating (corn; [5]): 10
Plant response rating, Corn (corn; [6]): 0
Corn plant response rating (corn; [7]): 10
Plant response rating (0 to 100 scale), Surinam Grass (Surinam grass; [4]): 10
Surinam Grass plant response rating (Surinam grass; [5]): 20
Plant response rating, Surinam Grass (Surinam grass; [6]): 20
Surinam Grass plant response rating (Surinam grass; [7]): 30
Plant response rating (0 to 100 scale), Foxtail, Giant (giant foxtail; [4]): 10
Foxtail, Giant plant response rating (giant foxtail; [5]): 30
Plant response rating, Foxtail, Giant (giant foxtail; [6]): 20
Foxtail, Giant plant response rating (giant foxtail; [7]): 40
Sedge, Umbrella plant response rating [3]: 80

CCn1nc(C(C)(C)C)cc1C(=O)Nc1cccc(C(=O)NOC)c1 [Compound 67]
Barnyardgrass plant response rating (barnyardgrass [1]; visual rating, 13 to 15 days): 60
Plant response rating, Barnyardgrass (barnyardgrass [2]; [8]): 10
Barnyardgrass plant response rating (barnyardgrass [2]; [9]): 80
Barnyardgrass plant response rating (barnyardgrass [2]; [10]): 10
Plant response rating, Barnyardgrass (barnyardgrass [2]; [11]): 0
Plant response rating, Crabgrass, Large (large crabgrass; [8]): 10
Crabgrass, Large plant response rating (large crabgrass; [9]): 20
Crabgrass, Large plant response rating (large crabgrass; [10]): 10
Plant response rating, Crabgrass, Large (large crabgrass; [11]): 0
Ducksalad plant response rating (ducksalad; visual rating, 13 to 15 days): 80
Plant response rating, Blackgrass (blackgrass; [8]): 10
Blackgrass plant response rating (blackgrass; [10]): 10
Rice plant response rating (rice; visual rating, 13 to 15 days): 60
Plant response rating, Morningglory (morningglory; [8]): 10
Morningglory plant response rating (morningglory; [10]): 0
Plant response rating, Morningglory (morningglory; [11]): 0
Plant response rating, Wheat (wheat; [8]): 10
Wheat plant response rating (wheat; [10]): 10
Plant response rating, Velvetleaf (velvetleaf; [8]): 10
Velvetleaf plant response rating (velvetleaf; [10]): 10
Plant response rating, Velvetleaf (velvetleaf; [11]): 0
Plant response rating, Pigweed (pigweed; [8]): 20
Pigweed plant response rating (pigweed; [10]): 0
Plant response rating, Pigweed (pigweed; [11]): 0
Plant response rating, Oat, Wild (wild oat; [8]): 30
Oat, Wild plant response rating (wild oat; [10]): 10
Plant response rating, Corn (corn; [8]): 10
Corn plant response rating (corn; [10]): 10
Plant response rating, Corn (corn; [11]): 0
Plant response rating, Surinam Grass (Surinam grass; [8]): 10
Surinam Grass plant response rating (Surinam grass; [10]): 10
Plant response rating, Surinam Grass (Surinam grass; [11]): 0
Plant response rating, Foxtail, Giant (giant foxtail; [8]): 10
Foxtail, Giant plant response rating (giant foxtail; [9]): 10
Foxtail, Giant plant response rating (giant foxtail; [10]): 10
Plant response rating, Foxtail, Giant (giant foxtail; [11]): 0
Sedge, Umbrella plant response rating ([3]; visual rating, 13 to 15 days): 80

CCn1nc(C(C)(C)C)cc1C(=O)Nc1cccc(C(=O)N2CC=CC2)c1 [Compound 286]
Barnyardgrass plant response rating (barnyardgrass [1]): 90
Barnyardgrass plant response rating (0 to 100 scale) (barnyardgrass [2]; [12]): 30
Plant response rating, Barnyardgrass (barnyardgrass [2]; [6]): 90
Barnyardgrass plant response rating (barnyardgrass [2]; [10]): 0
Barnyardgrass plant response rating (barnyardgrass [2]; [7]): 0
Crabgrass, Large plant response rating (0 to 100 scale) (large crabgrass; [12]): 0
Plant response rating, Crabgrass, Large (large crabgrass; [6]): 100
Crabgrass, Large plant response rating (large crabgrass; [10]): 0
Crabgrass, Large plant response rating (large crabgrass; [7]): 10
Ducksalad plant response rating (ducksalad): 90
Blackgrass plant response rating (blackgrass; [10]): 10
Blackgrass plant response rating (blackgrass; [7]): 20
Rice plant response rating (rice): 70
Morningglory plant response rating (0 to 100 scale) (morningglory; [12]): 0
Plant response rating, Morningglory (morningglory; [6]): 0
Morningglory plant response rating (morningglory; [10]): 0
Morningglory plant response rating (morningglory; [7]): 0
Wheat plant response rating (wheat; [10]): 20
Wheat plant response rating (wheat; [7]): 30
Velvetleaf plant response rating (0 to 100 scale) (velvetleaf; [12]): 0
Plant response rating, Velvetleaf (velvetleaf; [6]): 60
Velvetleaf plant response rating (velvetleaf; [10]): 10
Velvetleaf plant response rating (velvetleaf; [7]): 60
Pigweed plant response rating (0 to 100 scale) (pigweed; [12]): 100
Plant response rating, Pigweed (pigweed; [6]): 100
Pigweed plant response rating (pigweed; [10]): 60
Pigweed plant response rating (pigweed; [7]): 100
Oat, Wild plant response rating (wild oat; [10]): 30
Oat, Wild plant response rating (wild oat; [7]): 40
Corn plant response rating (0 to 100 scale) (corn; [12]): 0
Plant response rating, Corn (corn; [6]): 50
Corn plant response rating (corn; [10]): 0
Corn plant response rating (corn; [7]): 10
Surinam Grass plant response rating (0 to 100 scale) (Surinam grass; [12]): 10
Plant response rating, Surinam Grass (Surinam grass; [6]): 60
Surinam Grass plant response rating (Surinam grass; [10]): 10
Surinam Grass plant response rating (Surinam grass; [7]): 20
Foxtail, Giant plant response rating (0 to 100 scale) (giant foxtail; [12]): 10
Plant response rating, Foxtail, Giant (giant foxtail; [6]): 90
Foxtail, Giant plant response rating (giant foxtail; [10]): 20
Foxtail, Giant plant response rating (giant foxtail; [7]): 50
Sedge, Umbrella plant response rating [3]: 80

CCNC(=O)c1ccnc(NC(=O)c2cc(C(C)(C)C)nn2CC)c1 [Compound 152]
Barnyardgrass plant response rating (barnyardgrass [1]; visual rating, 13 to 15 days): 80
Barnyardgrass plant response rating (barnyardgrass [2]; [13]): 40
Barnyardgrass plant response rating (barnyardgrass [2]; [14]): 30
Crabgrass, Large plant response rating (large crabgrass; [13]): 20
Crabgrass, Large plant response rating (large crabgrass; [14]): 10
Ducksalad plant response rating (ducksalad; visual rating, 13 to 15 days): 80
Blackgrass plant response rating (blackgrass; [13]): 20
Blackgrass plant response rating (blackgrass; [14]): 20
Rice plant response rating (rice; visual rating, 13 to 15 days): 70
Morningglory plant response rating (morningglory; [13]): 60
Morningglory plant response rating (morningglory; [14]): 50
Wheat plant response rating (wheat; 250 g ai/ha, scale 0 to 100, 0 no effect, 100 complete control, preemergence): 100
Wheat plant response rating (wheat; [13]): 10
Wheat plant response rating (wheat; [14]): 10
Velvetleaf plant response rating (velvetleaf; [13]): 50
Velvetleaf plant response rating (velvetleaf; [14]): 50
Pigweed plant response rating (pigweed; [13]): 90
Pigweed plant response rating (pigweed; [14]): 50
Oat, Wild plant response rating (wild oat; [13]): 20
Oat, Wild plant response rating (wild oat; [14]): 10
Corn plant response rating (corn; [13]): 30
Corn plant response rating (corn; [14]): 20
Surinam Grass plant response rating (Surinam grass; [13]): 40
Surinam Grass plant response rating (Surinam grass; [14]): 30
Foxtail, Giant plant response rating (giant foxtail; [13]): 20
Foxtail, Giant plant response rating (giant foxtail; [14]): 10
Sedge, Umbrella plant response rating ([3]; visual rating, 13 to 15 days): 90
